The values that follow come from patent US9320773B2, “Compounds and therapeutic applications related to inhibition of dendritic cell immunoreceptor (DCIR) activity and signaling events” (priority 2010, dated 2016).

Residues, ends and D or L forms follow the SMILES beside them. *: point of attachment. Cbz = O=C(OCc1ccccc1)*; CH2F = FC*

The subject of data set [1] is HIV-1 NL4-3 in Raji-CD4-DCIR cells. The data set can be described thus: HIV-1 binding/entry assay in Raji-CD4-DCIR cells (cell-associated p24 ELISA). The data set is classed as cell-based. As to conditions: cells pretreated with inhibitor 10 min, pulsed with NL4-3 60 min; result in words. As to the method: FIG. 2A: Raji-CD4 and Raji-CD4-DCIR cells were either left untreated or treated with SSG (100 μg/ml) for 10 min at 37° C. Thereafter, cells were pulsed with NL4-3 for 60 min. After three washes with PBS to remove non-adsorbed virus, cell-associated virus was quantified by measuring the p24 content. Data shown correspond to the means±SD of triplicate samples from three combined independent experiments. The asterisk denotes statistically significant data (*, P<0.05; **, P<0.01). FIG. 2B: Cells were either left untransfected or transfected with a sense or antisense oligonucleotide specific for the signalling protein of interest. Next, cells were pulsed with NL4-3 for 60 min. After three washes with PBS to eliminate unbound virus, cell-associated virus was quantified by measuring the p24 content. Data shown correspond to the means±SD of triplicate samples from three combined independent experiments. The asterisk denotes statistically significant data (*, P<0.05; **, P<0.01). After gene silencing, the diminution of the targeted protein was verified by western blots, provided as an insert for each graph.
Where indicated, parental Raji-CD4 cells (DCIR-negative) or Raji-CD4-DCIR transfectants (1×10^6) were pretreated with the indicated amount of a pharmacological inhibitor for 10 min or transfected with sense or antisense oligonucleotides as described below. Cells were then pulsed with NL4-3 (100 ng of p24) for 60 min at 37° C. Next the virus-cell mixture was washed 3 times with PBS to remove unbound virus and resuspended in PBS containing 1% BSA. To assess binding/entry, the p24 content was determined by our in-house ELISA assay^33.
Raji-CD4 and Raji-CD4-DCIR cells (1×10^6 cells) were washed with OptiMEM (Invitrogen Life Technologies) without serum and antibiotics. The phosphorothioate oligodeoxynucleotides (Listed in Table 1) (Invitrogen Life Technologies) were transfected at a final concentration of 10 μM/well^35 using Oligofectamine according to the manufacturer's instructions (Invitrogen Life Technologies). Silencing efficiency was monitored by western blot analysis.

The next data set deals with CD4+ T cells. Put plainly: Cell toxicity / viability of CD4+ T cells. The format is cell-based, human. As to conditions: HIV-1-infected CD4+ T cells; data not shown.
Data set [2] relates to DCIR expression in CD4+ T cells. Put plainly: HIV-1-mediated induction of DCIR expression in CD4+ T cells (flow cytometry). The format is cell-based, human. As to conditions: for HIV-1-mediated DCIR expression: cells pre-treated before virus infection, 3 days, result in words. The procedure: Mitogen-activated CD4^+ T cells (1×10^6) were first either left untreated or treated for 1 h with the caspase inhibitor Z-VAD-FMK (50 nM), after which HIV-1 was added (100 ng of p24), where indicated. DCIR expression was monitored 3 days later by flow cytometry. Data shown represent the means±SD of triplicate samples from three independent experiments.
Cells (1×10^6) were first either left untreated or treated for 1 h with NAC, after which HIV-1 (100 ng of p24) was added. DCIR expression was monitored 3 days later by flow cytometry. Expression of DCIR is shown as a dotted line, whereas the continuous line represents staining obtained with an isotype-matched irrelevant control Ab. Data shown correspond to a single experiment representative of 3 independent experiments.
Cell surface expression of DCIR was monitored by flow cytometric analysis (Epics ELITE ESP, Coulter Electronics, Burlington, Canada). Cells (1×10^6 cells) were incubated for 30 min with a pool of human serum to block the unspecific binding. After washing, the cells were incubated with PE-labeled anti-DCIR (0.25 μg) for 45 min at 4° C. and then washed twice with PBS and 0.5% BSA. Non-specific staining was determined by using an isotype-matched irrelevant control antibody. After two final washes with PBS, cells were fixed in 2% paraformaldehyde for 30 min and analyzed.
On the technique in general: A flow cytometer gives signals particle by particle.

Data set [3] shares this test system. The data set can be described thus: DCIR expression in CD4+ T cells after H2O2 or other apoptosis inducers (flow cytometry). The format is cell-based, human. The procedure:
Next, DCIR expression was assessed by flow cytometry. Data shown represent the ratio of DCIR expression over basal expression. The ratio is calculated from the means±SD of triplicate samples from three independent experiments. […] FIG. 16A: […] Expression of DCIR is shown as a dotted line, whereas the continuous line represents staining obtained with an isotype-matched irrelevant control Ab. Data shown correspond to a single experiment representative of 3 independent experiments. FIG. 16B: […] Thereafter, DCIR surface expression and caspase activation were monitored by flow cytometric analysis using a double-staining method consisting of FITC-VAD-FMK followed by the R-PE-conjugated anti-DCIR. Data shown correspond to a single experiment representative of 4 independent experiments. Cell surface expression of DCIR was monitored by flow cytometric analysis (Epics ELITE ESP, Coulter Electronics, Burlington, Canada). […] After washing, the cells were incubated with PE-labeled anti-DCIR (0.25 μg) for 45 min at 4° C. and then washed twice with PBS and 0.5% BSA. Non-specific staining was determined by using an isotype-matched irrelevant control antibody. After two final washes with PBS, cells were fixed in 2% paraformaldehyde for 30 min and analyzed.

With `CC(C)(C)n1nc(-c2ccc(Cl)cc2)c2c(N)ncnc21` [PP2], the HIV-1 binding/entry result in data set [1] is “decreased”.

In the case of `COc1cccc(-c2cc(=O)c3ccccc3o2)c1N` [PD98059], the HIV-1 binding/entry result in data set [1] is “significant decrease”.

For `Oc1cc(O)cc(/C=C/c2ccc(O)c(O)c2)c1` [Pic, piceatannol], the HIV-1 binding/entry result in data set [1] is “significantly decreases”.

`CC(=O)N[C@@H](CS)C(=O)O` [NAC, N-acetyl-L-cystein]: in the data set on CD4+ T cells, the cell toxicity result is recorded as “no toxicity”. Further, the “HIV-1-mediated DCIR expression” value in data set [2] is on record as “inhibited but not completely”. In data set [2] (virus-infected cells also treated with NAC, n=3, 16.2±3.4% in HIV-1-infected cells without NAC), the “HIV-1-induced expression of DCIR on the surface of CD4+ T cells” value came out at 6.7±1.7%.

`C(=C\c1ccccc1)/c1ccccc1` [trans-stilbene]: the HIV-1 binding/entry entry in data set [1] is “inability of the inactive analog trans-stilbene to induce a comparable decrease”.

As for `Cn1c2ccccc2c2c3c(c4c5ccccc5n(CCC#N)c4c21)CNC3=O` [Go6976], the HIV-1 binding/entry result in data set [1] is listed as “play a role”.

In the case of `C[S+]([O-])c1ccc(-c2nc(-c3ccncc3)c(-c3ccc(F)cc3)[nH]2)cc1` (centres unmarked) [SB203580], the HIV-1 binding/entry result in data set [1] was “significant decrease”.

With `COC(=O)CC(NC(=O)C(C)NC(=O)C(NC(=O)OCc1ccccc1)C(C)C)C(=O)CF` (stereo not drawn) [Z-VAD-FMK, Benzyloxycarbonyl-Val-Ala-Asp (OMe) fluoromethylketone] (Cbz-Val-Ala-Asp(OMe)-CH2F; configuration not given here), the cell toxicity result in the data set on CD4+ T cells was “no toxicity”. In addition, the “DCIR expression in activated CD4+ T cells” value in data set [3] (cells treated with both H2O2 (30 μM) and Z-VAD-FMK (50 nM, 1 h pretreatment), n=3) is 1.0±0.2%. Further, in data set [3] (pretreatment with Z-VAD-FMK, result in words), the “DCIR expression after H2O2 stimulation” value is reported as “prevented”. Moreover, the “HIV-1-mediated DCIR expression” value in data set [2] is reported as “partially reduced”.

For the compound `CN[C@@H]1C[C@H]2O[C@@](C)([C@@H]1OC)n1c3ccccc3c3c4c(c5c6ccccc6n2c5c31)C(=O)NC4` [staurosporine], the DCIR expression result in data set [3] (CD4+ T cells treated with inducer, H2O2 20 to 60 μM, result in words) is “promoted”.
